ChEMBL document CHEMBL5724914, “Linking interpersonal differences in gut microbiota composition and drug biotransformation activity” (2024)
Where a SMILES comes first, the peptide text is derived from it. [ ]: non-standard residue; d: D form. pGlu = O=C1CC[C@@H](C(=O)O)N1; Thz = O=C(O)[C@@H]1CSCN1

Assays:
[1] = (§1) The drug is tested on Z-028 corresponding to mouse gut metagenome with ENA study accession number: PRJEB37062 and ENA sample accession number: ERS12561827 for biotransformation under anaerobic condition. The drug concentrations were measured over 9 timepoints collected between 0 and 24 hours of incubation by liquid-chromatography-coupled mass spectrometry (LC–MS); conditions: 2 µM
[2] = as §1, with “Z-026” for “Z-028”, “to” for “to mouse gut”, “ERS12561825” for “ERS12561827”; conditions: 2 µM
[3] = as §1, with “Z-023” for “Z-028”, “to” for “to mouse gut”, “ERS12561822” for “ERS12561827”; conditions: 2 µM
[4] = as §1, with “Z-022” for “Z-028”, “ERS12561821” for “ERS12561827”; conditions: 2 µM
[5] = as §1, with “Z-021” for “Z-028”, “to” for “to mouse gut”, “ERS12561820” for “ERS12561827”; conditions: 2 µM
[6] = as §1, with “Z-013” for “Z-028”, “rabbit” for “mouse”, “ERS12561813” for “ERS12561827”; conditions: 2 µM
[7] = as §1, with “Z-007” for “Z-028”, “rat” for “mouse”, “ERS12561807” for “ERS12561827”; conditions: 2 µM
[8] = as §1, with “Z-001” for “Z-028”, “ERS12561801” for “ERS12561827”; conditions: 2 µM
[9] = as §1, with “WLS-098” for “Z-028”, “human” for “mouse”, “ERS12561754” for “ERS12561827”; conditions: 2 µM
[10] = as §1, with “WLS-007” for “Z-028”, “human” for “mouse”, “ERS12561742” for “ERS12561827”; conditions: 2 µM
[11] = human gut metagenome, 24 h, 2 µM
[12] = human gut metagenome, 24 h, 2 µM; remark: listed apart in the source
[13] = human gut metagenome, 24 h, 2 µM; remark: listed apart in the source
[14] = human gut metagenome, 24 h, 2 µM; remark: listed apart in the source
[15] = human gut metagenome, 24 h, 2 µM; remark: listed apart in the source
[16] = human gut metagenome, 24 h, 2 µM; remark: listed apart in the source
[17] = human gut metagenome, 24 h, 2 µM; remark: listed apart in the source
[18] = human gut metagenome, 24 h, 2 µM; remark: listed apart in the source
[19] = human gut metagenome, 24 h, 2 µM; remark: listed apart in the source
[20] = as §1, with “Z-016” for “Z-028”, “ERS12561815” for “ERS12561827”; conditions: 2 µM
Also: call rule not given here.

CCCC1O[C@@H]2C[C@H]3[C@@H]4CCC5=CC(=O)C=C[C@]5(C)[C@H]4[C@@H](O)C[C@]3(C)[C@]2(C(=O)CO)O1 (some centres undefined) [BUDESONIDE]
Bacterial Biotransformation [1]: Compound metabolized
Bacterial Biotransformation [2]: Compound NOT metabolized
Bacterial Biotransformation [3]: Compound NOT metabolized
Bacterial Biotransformation [4]: Compound NOT metabolized
Bacterial Biotransformation [5]: Compound metabolized
Bacterial Biotransformation [6]: Compound metabolized
Bacterial Biotransformation [7]: Compound NOT metabolized
Bacterial Biotransformation [8]: Compound NOT metabolized
Bacterial Biotransformation [9]: Compound metabolized
Bacterial Biotransformation [10]: Compound metabolized
Bacterial Biotransformation [11]: Compound metabolized
Bacterial Biotransformation [12]: Compound metabolized
Bacterial Biotransformation [13]: Compound metabolized
Bacterial Biotransformation [14]: Compound metabolized
Bacterial Biotransformation [15]: Compound metabolized
Bacterial Biotransformation [16]: Compound metabolized
Bacterial Biotransformation [17]: Compound metabolized
Bacterial Biotransformation [18]: Compound metabolized
Bacterial Biotransformation [19]: Compound metabolized

CCCCCCOC(=O)/N=C(/N)c1ccc(NCc2nc3cc(C(=O)N(CCC(=O)OCC)c4ccccn4)ccc3n2C)cc1.CS(=O)(=O)O [DABIGATRAN ETEXILATE MESYLATE]
Bacterial Biotransformation [1]: Compound NOT metabolized
Bacterial Biotransformation [2]: Compound NOT metabolized
Bacterial Biotransformation [3]: Compound NOT metabolized
Bacterial Biotransformation [4]: Compound NOT metabolized
Bacterial Biotransformation [5]: Compound NOT metabolized
Bacterial Biotransformation [20]: Compound NOT metabolized
Bacterial Biotransformation [6]: Compound NOT metabolized
Bacterial Biotransformation [7]: Compound NOT metabolized
Bacterial Biotransformation [8]: Compound NOT metabolized
Bacterial Biotransformation [11]: Compound NOT metabolized
Bacterial Biotransformation [12]: Compound NOT metabolized
Bacterial Biotransformation [13]: Compound NOT metabolized
Bacterial Biotransformation [14]: Compound NOT metabolized
Bacterial Biotransformation [15]: Compound NOT metabolized
Bacterial Biotransformation [19]: Compound metabolized

O=c1[nH]c2ccccc2n1CCCN1CCC(n2c(=O)[nH]c3cc(Cl)ccc32)CC1 [DOMPERIDONE]
Bacterial Biotransformation [1]: Compound NOT metabolized
Bacterial Biotransformation [2]: Compound NOT metabolized
Bacterial Biotransformation [3]: Compound NOT metabolized
Bacterial Biotransformation [4]: Compound NOT metabolized
Bacterial Biotransformation [5]: Compound NOT metabolized
Bacterial Biotransformation [20]: Compound NOT metabolized
Bacterial Biotransformation [6]: Compound NOT metabolized
Bacterial Biotransformation [7]: Compound NOT metabolized
Bacterial Biotransformation [8]: Compound NOT metabolized
Bacterial Biotransformation [9]: Compound NOT metabolized
Bacterial Biotransformation [10]: Compound NOT metabolized
Bacterial Biotransformation [14]: Compound NOT metabolized
Bacterial Biotransformation [15]: Compound NOT metabolized
Bacterial Biotransformation [16]: Compound NOT metabolized
Bacterial Biotransformation [17]: Compound NOT metabolized
Bacterial Biotransformation [19]: Compound NOT metabolized

c1ccc([C@H]2CN3CCSC3=N2)cc1 [LEVAMISOLE]
Bacterial Biotransformation [1]: Compound metabolized
Bacterial Biotransformation [4]: Compound metabolized
Bacterial Biotransformation [20]: Compound NOT metabolized
Bacterial Biotransformation [6]: Compound NOT metabolized
Bacterial Biotransformation [7]: Compound NOT metabolized
Bacterial Biotransformation [8]: Compound NOT metabolized
Bacterial Biotransformation [10]: Compound metabolized
Bacterial Biotransformation [11]: Compound metabolized
Bacterial Biotransformation [12]: Compound NOT metabolized
Bacterial Biotransformation [13]: Compound metabolized
Bacterial Biotransformation [14]: Compound metabolized
Bacterial Biotransformation [15]: Compound metabolized
Bacterial Biotransformation [16]: Compound NOT metabolized
Bacterial Biotransformation [17]: Compound metabolized
Bacterial Biotransformation [18]: Compound metabolized

C#C[C@]1(O)CC[C@H]2[C@@H]3CCC4=CC(=O)CC[C@@H]4[C@H]3CC[C@@]21CC [LEVONORGESTREL]
Bacterial Biotransformation [1]: Compound metabolized
Bacterial Biotransformation [2]: Compound metabolized
Bacterial Biotransformation [4]: Compound metabolized
Bacterial Biotransformation [6]: Compound metabolized
Bacterial Biotransformation [7]: Compound metabolized
Bacterial Biotransformation [8]: Compound NOT metabolized
Bacterial Biotransformation [9]: Compound metabolized
Bacterial Biotransformation [10]: Compound metabolized
Bacterial Biotransformation [11]: Compound metabolized
Bacterial Biotransformation [12]: Compound metabolized
Bacterial Biotransformation [13]: Compound metabolized
Bacterial Biotransformation [14]: Compound metabolized
Bacterial Biotransformation [16]: Compound metabolized
Bacterial Biotransformation [17]: Compound NOT metabolized
Bacterial Biotransformation [18]: Compound metabolized
Bacterial Biotransformation [19]: Compound metabolized

C=CCN1CC[C@]23c4c5ccc(O)c4O[C@H]2C(=O)CC[C@@]3(O)[C@H]1C5 [NALOXONE]
Bacterial Biotransformation [1]: Compound NOT metabolized
Bacterial Biotransformation [2]: Compound NOT metabolized
Bacterial Biotransformation [3]: Compound NOT metabolized
Bacterial Biotransformation [4]: Compound NOT metabolized
Bacterial Biotransformation [5]: Compound NOT metabolized
Bacterial Biotransformation [20]: Compound NOT metabolized
Bacterial Biotransformation [6]: Compound NOT metabolized
Bacterial Biotransformation [7]: Compound NOT metabolized
Bacterial Biotransformation [8]: Compound metabolized
Bacterial Biotransformation [9]: Compound NOT metabolized
Bacterial Biotransformation [11]: Compound NOT metabolized
Bacterial Biotransformation [12]: Compound NOT metabolized
Bacterial Biotransformation [13]: Compound NOT metabolized
Bacterial Biotransformation [14]: Compound NOT metabolized
Bacterial Biotransformation [15]: Compound metabolized
Bacterial Biotransformation [16]: Compound NOT metabolized
Bacterial Biotransformation [17]: Compound NOT metabolized
Bacterial Biotransformation [18]: Compound NOT metabolized
Bacterial Biotransformation [19]: Compound NOT metabolized

NC(=O)N1c2ccccc2CC(=O)c2ccccc21 [OXCARBAZEPINE]
Bacterial Biotransformation [1]: Compound NOT metabolized
Bacterial Biotransformation [2]: Compound NOT metabolized
Bacterial Biotransformation [3]: Compound metabolized
Bacterial Biotransformation [4]: Compound metabolized
Bacterial Biotransformation [5]: Compound NOT metabolized
Bacterial Biotransformation [20]: Compound NOT metabolized
Bacterial Biotransformation [6]: Compound NOT metabolized
Bacterial Biotransformation [7]: Compound NOT metabolized
Bacterial Biotransformation [8]: Compound NOT metabolized
Bacterial Biotransformation [9]: Compound NOT metabolized
Bacterial Biotransformation [11]: Compound NOT metabolized
Bacterial Biotransformation [12]: Compound NOT metabolized
Bacterial Biotransformation [13]: Compound NOT metabolized
Bacterial Biotransformation [14]: Compound metabolized
Bacterial Biotransformation [15]: Compound metabolized
Bacterial Biotransformation [16]: Compound NOT metabolized
Bacterial Biotransformation [17]: Compound NOT metabolized
Bacterial Biotransformation [18]: Compound NOT metabolized
Bacterial Biotransformation [19]: Compound NOT metabolized

O=C1CC[C@@H](C(=O)N2CSC[C@H]2C(=O)O)N1 [PIDOTIMOD] ([pGlu]-[Thz]-OH)
Bacterial Biotransformation [1]: Compound NOT metabolized
Bacterial Biotransformation [3]: Compound metabolized
Bacterial Biotransformation [4]: Compound metabolized
Bacterial Biotransformation [20]: Compound NOT metabolized
Bacterial Biotransformation [6]: Compound NOT metabolized
Bacterial Biotransformation [7]: Compound NOT metabolized
Bacterial Biotransformation [8]: Compound NOT metabolized
Bacterial Biotransformation [9]: Compound NOT metabolized
Bacterial Biotransformation [12]: Compound metabolized
Bacterial Biotransformation [13]: Compound NOT metabolized
Bacterial Biotransformation [14]: Compound NOT metabolized
Bacterial Biotransformation [15]: Compound NOT metabolized
Bacterial Biotransformation [16]: Compound NOT metabolized
Bacterial Biotransformation [17]: Compound NOT metabolized
Bacterial Biotransformation [18]: Compound NOT metabolized
Bacterial Biotransformation [19]: Compound NOT metabolized

COC(=O)[C@H]1[C@H]2C[C@@H]3c4[nH]c5cc(OC)ccc5c4CCN3C[C@H]2C[C@@H](OC(=O)c2cc(OC)c(OC)c(OC)c2)[C@@H]1OC [RESERPINE]
Bacterial Biotransformation [1]: Compound NOT metabolized
Bacterial Biotransformation [2]: Compound NOT metabolized
Bacterial Biotransformation [3]: Compound metabolized
Bacterial Biotransformation [4]: Compound metabolized
Bacterial Biotransformation [5]: Compound metabolized
Bacterial Biotransformation [20]: Compound NOT metabolized
Bacterial Biotransformation [6]: Compound NOT metabolized
Bacterial Biotransformation [7]: Compound NOT metabolized
Bacterial Biotransformation [8]: Compound NOT metabolized
Bacterial Biotransformation [9]: Compound metabolized
Bacterial Biotransformation [10]: Compound NOT metabolized
Bacterial Biotransformation [11]: Compound NOT metabolized
Bacterial Biotransformation [12]: Compound metabolized
Bacterial Biotransformation [13]: Compound NOT metabolized
Bacterial Biotransformation [14]: Compound metabolized
Bacterial Biotransformation [15]: Compound metabolized
Bacterial Biotransformation [16]: Compound metabolized
Bacterial Biotransformation [18]: Compound NOT metabolized
Bacterial Biotransformation [19]: Compound metabolized
